The structures appear in SMILES notation.

The test system of data set [1] is Tetranychus urticae (Two-Spotted Spider Mite). In words: Activity against Tetranychus urticae, mixed population, feeding/residual contact activity, preventive (Example B4). The data set is classed as in vivo. To be noted: foliar, 192 h, bean leaf discs sprayed, egg, larval and adult mortality 8 days later. From the text: Activity Against Tetranychus urticae (Two-Spotted Spider Mite) (Mixed Population, Feeding/Residual Contact Activity, Preventive)
Bean leaf discs on agar in 24-well microtiter plates are sprayed with test solutions. After drying, the leaf discs are infested with mite populations of mixed ages. 8 days later, discs are checked for egg mortality, larval mortality, and adult mortality.

Data set [2] deals with Myzus persicae (Green Peach Aphid). Briefly: Activity against Myzus persicae on cabbage plants, feeding/residual contact activity (Example B5). The data set is classed as in vivo. Particulars: 144 h, infested cabbage plants, spray chamber, mortality 6 days after treatment. As for the experimental part: Activity Against Myzus persicae (Green Peach Aphid) (Mixed Population, Feeding/Residual Contact Activity, Plant Damage Evaluation)
Cabbage plants infested with a mixed population of Myzus persicae are treated with diluted test solutions of the compounds in a spray chamber. 6 days after treatment, samples are checked for mortality and for plant damage (phytotoxicity), visual assessment being made using a 0-100% rating scale (100%=total damage to plant; 0%=no damage to plant).

Data set [3] has the same test system. Briefly: Activity against Myzus persicae, mixed population, feeding/residual contact activity, preventive (Example B1). The data set is classed as in vivo. On the set-up: concentration or dose not given beside the values. Particulars: foliar, 144 h, sunflower leaf discs sprayed, mortality checked after 6 days. As for the experimental part: Activity Against Myzus persicae (Green Peach Aphid) (Mixed Population, Feeding/Residual Contact Activity, Preventive)
Sunflower leaf discs are placed on agar in a 24-well microtiter plate and sprayed with test solutions. After drying, the leaf discs are infested with an aphid population of mixed ages. After an incubation period of 6 days, samples are checked for mortality and special effects (e.g. phytotoxicity).

The test system is the same in data set [4]. In words: Activity against Myzus persicae, mixed population, systemic/feeding activity, curative (Example B2). To be noted: 144 h, roots of infested pea seedlings in test solution, mortality 6 days after introduction. The data set is classed as in vivo. From the text: Activity Against Myzus persicae (Green Peach Aphid) (Mixed Population, Systemic/Feeding Activity, Curative)
Roots of pea seedlings, infested with an aphid population of mixed ages, are placed directly in the test solutions. 6 days after introduction, samples are checked for mortality and special effects on the plant.

The subject of data set [5] is Aphis craccivora (Cowpea Aphid). In words: Activity against Aphis craccivora, mixed population, contact/feeding (Example B9). The data set is classed as in vivo. Particulars: 200 ppm; infested pea seedlings, spray chamber; mortality 6 days after treatment. As for the experimental part: Activity Against Aphis craccivora (Cowpea Aphid) (Mixed Population, Contact/Feeding)
Pea seedlings, infested with an aphid population of mixed ages, are treated (2 replicates) with diluted test solutions in a spray chamber. 6 days after treatment, samples are checked for mortality.

On to `CCOC(=O)OC1=C(c2cc(C(C)=O)ccc2C)C(=O)NC12CCN(OC)CC2` [Compound P1.2], for which the melting point (in general, the temperature of the solid-liquid transition) was 185 to 187 °C.

On to `C=Cc1cc(C)cc(C)c1C1=C(OC(=O)OCC)C2(CCN(OC)CC2)NC1=O` [Compound P1.3], for which the pest or weed control at 400 ppm in data set [1] and in data set [4] was more than 80% throughout. Moreover, in data set [2], the pest or weed control (as a rule, the degree to which the test organism was suppressed or injured, in per cent) at 200 ppm is not below 80%. Moreover, the pest or weed control in data set [3] is more than 80%.

In data set [1], `C=Cc1cc(C)cc(C)c1C1=C(OC(=O)OCC)C2(CCN(OC)CC2)N(C)C1=O` [Compound P1.4] returned a pest or weed control at 400 ppm of more than 80%. In addition, in data set [2], the pest or weed control at 200 ppm is not below 80%. This compound returned a pest or weed control in data set [3] of more than 80%.

As to `C=Cc1cc(C)cc(C)c1C1=C(OC(=O)OCC)C2(CCN(OC)CC2)N(OC2CCCO2)C1=O` (stereo not shown) [Compound P1.5, Carbonic acid 3-(2,4-dimethyl-6-vinyl-phenyl)-8-methoxy-2-oxo-1-(tetrahydro-furan-2-yloxy)-1,8-diaza-spiro[4.5]dec-3-en-4-yl ester ethyl ester], the pest or weed control at 400 ppm in data set [1] is more than 80%. In addition, the pest or weed control at 200 ppm in data set [2] was not below 80%. In addition, the pest or weed control in data set [3] is more than 80%.

In the case of `C=Cc1cc(C)c(C2=C(OC(=O)OCC)C3(CCN(OC)CC3)N(C)C2=O)c(C)c1` [Compound P1.6], in data set [2], the pest or weed control at 200 ppm was not below 80%. For the same compound, in data set [5], the activity result is recorded as “over 80%”.

For the compound `C#Cc1cc(C)cc(C)c1C1=C(OC(=O)OCC)C2(CCN(OC)CC2)NC1=O` [Compound P1.7], the pest or weed control at 400 ppm in data set [1] and in data set [4] was more than 80% each time. Moreover, the pest or weed control at 200 ppm in data set [2] is not below 80%. This compound also yielded a pest or weed control in data set [3] of more than 80%.

As to `C#Cc1cc(C)cc(C)c1C1=C(OC(=O)OCC)C2(CCN(OC)CC2)N(C)C1=O` [Compound P1.8], the pest or weed control at 400 ppm in data set [1] and in data set [4] was more than 80% in each case. Moreover, the pest or weed control at 200 ppm in data set [2] was not below 80%. Also, in data set [3], the pest or weed control was more than 80%.

For `C#Cc1cc(C)cc(C)c1C1=C(OC(=O)OCC)C2(CCN(OC)CC2)N(OC2CCCO2)C1=O` (stereo not shown) [Compound P1.9], the pest or weed control at 400 ppm in data set [1] and in data set [4] was more than 80% in each case. This compound gave a pest or weed control at 200 ppm in data set [2] not below 80%. The compound also registered a pest or weed control in data set [3] of more than 80%.

For `C#Cc1ccc(C)cc1C1=C(OC(=O)OCC)C2(CCN(OC)CC2)NC1=O` [Compound P1.10], the pest or weed control at 200 ppm in data set [2] was not below 80%.

In data set [1], `C#Cc1ccc(C)cc1C1=C(OC(=O)OCC)C2(CCN(OC)CC2)N(OC)C1=O` [Compound P1.11] gave a pest or weed control at 400 ppm of more than 80%. Further, in data set [2], the pest or weed control at 200 ppm was not below 80%. Besides, the pest or weed control in data set [3] was more than 80%.

Turning to `C#Cc1cc(C)c(C2=C(OC(=O)OCC)C3(CCN(OC)CC3)NC2=O)c(C)c1` [Compound P1.12], the pest or weed control at 200 ppm in data set [2] is not below 80%. The compound further displayed a pest or weed control in data set [3] of more than 80%. Also, the pest or weed control at 400 ppm in data set [4] was more than 80%.

With `C#Cc1cc(C)c(C2=C(OC(=O)OCC)C3(CCN(OC)CC3)N(C)C2=O)c(C)c1` [Compound P1.13], the pest or weed control at 200 ppm in data set [2] is not below 80%. In data set [3], this compound yielded a pest or weed control of more than 80%. The compound further returned a pest or weed control at 400 ppm in data set [4] of more than 80%.

On to `CC#Cc1cc(C)c(C2=C(OC(=O)OCC)C3(CCN(OC)CC3)N(C)C2=O)c(C)c1` [Compound P1.14], for which the pest or weed control at 400 ppm in data set [1] and in data set [4] was more than 80% throughout. The compound also yielded a pest or weed control at 200 ppm in data set [2] not below 80%.

`CON1CCC2(CC1)NC(=O)C(c1cc(C(C)=O)ccc1C)C2=O` (stereo not shown) [Compound P2.1] gave a melting point of 218 to 220 °C.

The compound `COC(=O)c1ccc(C)c(C2C(=O)NC3(CCN(OC)CC3)C2=O)c1` (stereo not shown) [Compound P2.2] showed a melting point of 245 to 247 °C.

In data set [1], `C=Cc1cc(C)cc(C)c1C1=C(O)C2(CCN(OC)CC2)NC1=O` [Compound P2.3, 3-(2,4-Dimethyl-6-vinyl-phenyl)-4-hydroxy-8-methoxy-1,8-diaza-spiro[4.5]dec-3-en-2-one] displayed a pest or weed control at 400 ppm of more than 80%. The pest or weed control at 200 ppm in data set [2] is not below 80%. In addition, the pest or weed control in data set [3] was more than 80%.

On to `C=Cc1cc(C)cc(C)c1C1=C(O)C2(CCN(OC)CC2)N(C)C1=O` [Compound P2.4, 3-(2,4-Dimethyl-6-vinyl-phenyl)-4-hydroxy-8-methoxy-1-methyl-1,8-diaza-spiro[4.5]dec-3-en-2-one], for which the pest or weed control at 200 ppm in data set [2] was not below 80%.

`C=Cc1cc(C)cc(C)c1C1=C(O)C2(CCN(OC)CC2)N(OC2CCCO2)C1=O` (stereo not shown) [Compound P2.5, 3-(2,4-Dimethyl-6-vinyl-phenyl)-4-hydroxy-8-methoxy-1-(tetrahydro-furan-2-yloxy)-1,8-diaza-spiro[4.5]dec-3-en-2-one] had a pest or weed control at 200 ppm in data set [2] not below 80%.

With `C#Cc1cc(C)cc(C)c1C1C(=O)NC2(CCN(OC)CC2)C1=O` (stereo not shown) [Compound P2.6], the pest or weed control at 400 ppm in data set [1] and in data set [4] was more than 80% in each case. The same compound had a pest or weed control at 200 ppm in data set [2] not below 80%. In addition, the pest or weed control in data set [3] is more than 80%.

`C#Cc1cc(C)cc(C)c1C1C(=O)N(C)C2(CCN(OC)CC2)C1=O` (stereo not shown) [Compound P2.7] registered a pest or weed control at 400 ppm in data set [1] of more than 80%. This compound also had a pest or weed control at 200 ppm in data set [2] not below 80%. The compound also showed a pest or weed control in data set [3] of more than 80%.

Turning to `C#Cc1cc(C)cc(C)c1C1C(=O)N(OC2CCCO2)C2(CCN(OC)CC2)C1=O` (stereo not shown) [Compound P2.8], the pest or weed control at 400 ppm in data set [1] and in data set [4] was more than 80% throughout. Further, the pest or weed control at 200 ppm in data set [2] was not below 80%. In data set [3], the pest or weed control was more than 80%.

The compound `C#Cc1ccc(C)cc1C1C(=O)N(OC)C2(CCN(OC)CC2)C1=O` (stereo not shown) [Compound P2.10] came in with a pest or weed control at 200 ppm in data set [2] not below 80%.

In turn, `C#Cc1cc(C)c(C2C(=O)NC3(CCN(OC)CC3)C2=O)c(C)c1` (stereo not shown) [Compound P2.11] displayed a pest or weed control at 200 ppm in data set [2] not below 80%. This compound displayed a pest or weed control in data set [3] of more than 80%. In data set [4], this compound showed a pest or weed control at 400 ppm of more than 80%.

In data set [2], `C#Cc1cc(C)c(C2=C(O)C3(CCN(OC)CC3)N(C)C2=O)c(C)c1` [Compound P2.12, 3-(4-Ethynyl-2,6-dimethyl-phenyl)-4-hydroxy-8-methoxy-1-methyl-1,8-diaza-spiro[4.5]dec-3-en-2-one] registered a pest or weed control at 200 ppm not below 80%. Further, in data set [3], the pest or weed control is more than 80%. The same compound yielded a pest or weed control at 400 ppm in data set [4] of more than 80%.

The compound `CC#Cc1cc(C)c(C2=C(O)C3(CCN(OC)CC3)N(C)C2=O)c(C)c1` [Compound P2.13, 3-(2,6-Dimethyl-4-prop-1-ynyl-phenyl)-4-hydroxy-8-methoxy-1-methyl-1,8-diaza-spiro[4.5]dec-3-en-2-one] displayed a pest or weed control at 200 ppm in data set [2] not below 80%.

These data come from patent publication US20130210625A1, “SPIROHETEROCYCLIC PYRROLIDINE DERIVATIVES BASED PESTICIDES” (SYNGENTA CROP PROTECTION LLC, priority 2010, published 2013).
